From PMC5578959, “Selective LRRK2 kinase inhibition reduces phosphorylation of endogenous Rab10 and Rab12 in human peripheral mononuclear blood cells” (Scientific Reports, 2017)

Key:
Assay in all cases: KiNativ profiling in human PBMCs
Type in all cases: binding
TLK2 = test system: T1, TLK2; details: Lys2
T1 construct: purchased ActivX Technologies (KiNativ)
Outline: (§1)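 Steps: expose living PBMCs to compound (0.1 µM or 1 µM); perform KiNativ-based kinase profiling.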

AKT1 = test system: T2, AKT1; details: ATP Loop
T2 construct: purchased ActivX Technologies (KiNativ)
Outline: as §1

RSK1,RSK2,RSK3 domain1 = details: Lys2
Outline: as §1

PCTAIRE2 = test system: T3, PCTAIRE2; details: Lys2
T3 construct: purchased ActivX Technologies (KiNativ)
Outline: as §1

MLK3 = test system: T4, MLK3; details: Lys2
T4 construct: purchased ActivX Technologies (KiNativ)
Outline: as §1

LKB1 = test system: T5, LKB1; details: Lys2
T5 construct: purchased ActivX Technologies (KiNativ)
Outline: as §1

DGKA = test system: T6, DGKA; details: ATP
T6 construct: purchased ActivX Technologies (KiNativ)
Outline: as §1

[1] = test system: ZC1/HGK,ZC2/TNIK,ZC3/MINK; details: Lys2
Outline: as §1

PLK1 = test system: T7, PLK1; details: Lys1
T7 construct: purchased ActivX Technologies (KiNativ)
Outline: as §1

MST1 = test system: T8, MST1; details: Lys1
T8 construct: purchased ActivX Technologies (KiNativ)
Outline: as §1

MARK3 = test system: T9, MARK3; details: Lys1
T9 construct: purchased ActivX Technologies (KiNativ)
Outline: as §1

NEK1 = test system: T10, NEK1; details: Lys2
T10 construct: purchased ActivX Technologies (KiNativ)
Outline: as §1

PIK3CD = test system: T11, PIK3CD; details: ATP
T11 construct: purchased ActivX Technologies (KiNativ)
Outline: as §1

FYN,SRC,YES = details: Activation Loop
Outline: as §1

MAP3K6 = test system: T12, MAP3K6; details: Lys2
T12 construct: purchased ActivX Technologies (KiNativ)
Outline: as §1

CDK11,CDK8 = details: Lys2
Outline: as §1

NDR1 = test system: T13, NDR1
T13 construct: purchased ActivX Technologies (KiNativ)
Outline: as §1

LOK = test system: T14, LOK
T14 construct: purchased ActivX Technologies (KiNativ)
Outline: as §1

PIK3C3 = test system: T15, PIK3C3; details: ATP
T15 construct: purchased ActivX Technologies (KiNativ)
Outline: as §1

PIK3CB = test system: T16, PIK3CB; details: ATP
T16 construct: purchased ActivX Technologies (KiNativ)
Outline: as §1

NDR2 = test system: T17, NDR2
T17 construct: purchased ActivX Technologies (KiNativ)
Outline: as §1

NEK6,NEK7 = details: Lys2
Outline: as §1

MAP3K4 = test system: T18, MAP3K4; details: Lys2
T18 construct: purchased ActivX Technologies (KiNativ)
Outline: as §1

p38d,p38g = details: Lys2
Outline: as §1

MARK1,MARK2 = details: Lys1
Outline: as §1

RSK1 domain2 = test system: T19, RSK1 domain2; details: Lys2
T19 construct: RSK1 domain2; purchased ActivX Technologies (KiNativ)
Outline: as §1

PIP4K2C = test system: T20, PIP4K2C; details: ATP
T20 construct: purchased ActivX Technologies (KiNativ)
Outline: as §1

RSK2 domain1 = test system: T21, RSK2 domain1
T21 construct: RSK2 domain1; purchased ActivX Technologies (KiNativ)
Outline: as §1

p70S6K = test system: T22, p70S6K; details: Lys2
T22 construct: purchased ActivX Technologies (KiNativ)
Outline: as §1

STLK5 = test system: T23, STLK5
T23 construct: purchased ActivX Technologies (KiNativ)
Outline: as §1

MSK1 domain1 = test system: T24, MSK1 domain1; details: Lys2
T24 construct: MSK1 domain1; purchased ActivX Technologies (KiNativ)
Outline: as §1

CaMK4 = test system: T25, CaMK4
T25 construct: purchased ActivX Technologies (KiNativ)
Outline: as §1

NEK8 = test system: T26, NEK8; details: Lys2
T26 construct: purchased ActivX Technologies (KiNativ)
Outline: as §1

MAP3K15,MAP3K5,MAP3K6 = details: Lys1
Outline: as §1

PRP4 = test system: T27, PRP4; details: Other
T27 construct: purchased ActivX Technologies (KiNativ)
Outline: as §1

Compound: Cc1cccc(-c2cc(Nc3ccn(C)n3)nc3[nH]cc(C#N)c23)c1 [Lu AF58786]
- Inhibition (TLK2; 0.1µM): 13.3%
- Inhibition (TLK2; 1µM): -1.2%
- Inhibition (AKT1; 0.1µM): 7.0%
- Inhibition (AKT1; 1µM): -7.5%
- Inhibition (RSK1,RSK2,RSK3 domain1; 0.1µM): 14.1%
- Inhibition (RSK1,RSK2,RSK3 domain1; 1µM): 29.7%
- Inhibition (PCTAIRE2; 0.1µM): 18.1%
- Inhibition (PCTAIRE2; 1µM): -0.164%
- Inhibition (MLK3; 0.1µM): 1.5%
- Inhibition (MLK3; 1µM): 8.8%
- Inhibition (LKB1; 0.1µM): 6.1%
- Inhibition (LKB1; 1µM): 3.9%
- Inhibition (DGKA; 0.1µM): 1.1%
- Inhibition (DGKA; 1µM): -1.9%
- Inhibition ([1]; 0.1µM): 6.6%
- Inhibition ([1]; 1µM): -3.7%
- Inhibition (PLK1; 0.1µM): -7.7%
- Inhibition (PLK1; 1µM): -19.7%
- Inhibition (MST1; 0.1µM): 26.2%
- Inhibition (MST1; 1µM): 19.0%
- Inhibition (MARK3; 0.1µM): 2.1%
- Inhibition (MARK3; 1µM): 3.2%
- Inhibition (NEK1; 0.1µM): -2.3%
- Inhibition (NEK1; 1µM): -14.0%
- Inhibition (PIK3CD; 0.1 µM, TKVNWLAHNVSKDNRQ): -4.8%
- Inhibition (PIK3CD; 0.1 µM, VNWLAHNVSKDNRQ): 8.9%
- Inhibition (PIK3CD; 1 µM, TKVNWLAHNVSKDNRQ): 14.4%
- Inhibition (PIK3CD; 1 µM, VNWLAHNVSKDNRQ): 18.8%
- Inhibition (FYN,SRC,YES; 0.1µM): -6.7%
- Inhibition (FYN,SRC,YES; 1µM): -2.5%
- Inhibition (MAP3K6; 0.1µM): 31.4%
- Inhibition (MAP3K6; 1µM): 4.4%
- Inhibition (CDK11,CDK8; 0.1µM): -20.3%
- Inhibition (CDK11,CDK8; 1µM): -2.0%
- Inhibition (NDR1; 0.1µM, Lys1): 0.33%
- Inhibition (NDR1; 0.1µM, Lys2): 16.5%
- Inhibition (NDR1; 1µM, Lys1): -11.0%
- Inhibition (NDR1; 1µM, Lys2): 0.751%
- Inhibition (LOK; 0.1µM, Lys1): 13.2%
- Inhibition (LOK; 0.1µM, Lys2): 1.8%
- Inhibition (LOK; 1µM, Lys1): 9.9%
- Inhibition (PIK3C3; 0.1µM): 1.5%
- Inhibition (PIK3C3; 1µM): -10.0%
- Inhibition (PIK3CB; 0.1µM): 14.0%
- Inhibition (PIK3CB; 1µM): -22.3%
- Inhibition (NDR2; 0.1µM, Lys1): -14.6%
- Inhibition (NDR2; 0.1µM, Lys2): 10.7%
- Inhibition (NDR2; 1µM, Lys1): -18.5%
- Inhibition (NDR2; 1µM, Lys2): 1.3%
- Inhibition (NEK6,NEK7; 0.1µM): 15.4%
- Inhibition (NEK6,NEK7; 1µM): -5.8%
- Inhibition (MAP3K4; 0.1µM): 11.1%
- Inhibition (MAP3K4; 1µM): -2.7%
- Inhibition (p38d,p38g; 0.1µM): 7.1%
- Inhibition (p38d,p38g; 1µM): -0.541%
- Inhibition (MARK1,MARK2; 0.1µM): 16.5%
- Inhibition (MARK1,MARK2; 1µM): 7.1%
- Inhibition (RSK1 domain2; 0.1µM): 11.6%
- Inhibition (RSK1 domain2; 1µM): 5.6%
- Inhibition (PIP4K2C; 0.1µM): 19.6%
- Inhibition (PIP4K2C; 1µM): 31.1%
- Inhibition (RSK2 domain1; 0.1µM, ATP Loop): 26.3%
- Inhibition (RSK2 domain1; 0.1µM, Activation Loop): 16.6%
- Inhibition (RSK2 domain1; 0.1µM, Lys2): 1.6%
- Inhibition (RSK2 domain1; 1µM, ATP Loop): 13.9%
- Inhibition (RSK2 domain1; 1µM, Activation Loop): 32.7%
- Inhibition (RSK2 domain1; 1µM, Lys2): 27.1%
- Inhibition (p70S6K; 0.1µM): -7.6%
- Inhibition (p70S6K; 1µM): -5.7%
- Inhibition (STLK5; 0.1µM, Activation Loop): 3.4%
- Inhibition (STLK5; 0.1µM, Lys2): 16.0%
- Inhibition (STLK5; 1µM, Activation Loop): -4.3%
- Inhibition (STLK5; 1µM, Lys2): 19.2%
- Inhibition (MSK1 domain1; 0.1µM): 15.8%
- Inhibition (MSK1 domain1; 1µM): 1.9%
- Inhibition (CaMK4; 0.1µM, Lys1): 11.0%
- Inhibition (CaMK4; 0.1µM, Lys2): 14.0%
- Inhibition (CaMK4; 1µM, Lys1): 23.7%
- Inhibition (CaMK4; 1µM, Lys2): 12.9%
- Inhibition (NEK8; 0.1µM): -2.3%
- Inhibition (NEK8; 1µM): -10.4%
- Inhibition (MAP3K15,MAP3K5,MAP3K6; 0.1µM): 12.0%
- Inhibition (MAP3K15,MAP3K5,MAP3K6; 1µM): 11.6%
- Inhibition (PRP4; 0.1 µM): -2.3%
- Inhibition (PRP4; 1 µM): 3.0%
